# Results as given in article PMC7251097, “Aspartate/asparagine-β-hydroxylase: a high-throughput mass spectrometric assay for discovery of small molecule inhibitors” (Scientific Reports, 2020).
# Counter-ions that a name gives are not always drawn.
# Biological target: T1, His6-AspH315–758 (human aspartate/asparagine-β-hydroxylase, AspH) (Homo sapiens, UniProt Q12797)
# T1 construct: N-Terminally His6-tagged human AspH315–758 (His6-AspH315–758) was produced in E. coli BL21 (DE3) cells; made in house; host or cells: E. coli BL21 (DE3), pET-28a(+) vector
# T1 sequence (Q12797 315-758): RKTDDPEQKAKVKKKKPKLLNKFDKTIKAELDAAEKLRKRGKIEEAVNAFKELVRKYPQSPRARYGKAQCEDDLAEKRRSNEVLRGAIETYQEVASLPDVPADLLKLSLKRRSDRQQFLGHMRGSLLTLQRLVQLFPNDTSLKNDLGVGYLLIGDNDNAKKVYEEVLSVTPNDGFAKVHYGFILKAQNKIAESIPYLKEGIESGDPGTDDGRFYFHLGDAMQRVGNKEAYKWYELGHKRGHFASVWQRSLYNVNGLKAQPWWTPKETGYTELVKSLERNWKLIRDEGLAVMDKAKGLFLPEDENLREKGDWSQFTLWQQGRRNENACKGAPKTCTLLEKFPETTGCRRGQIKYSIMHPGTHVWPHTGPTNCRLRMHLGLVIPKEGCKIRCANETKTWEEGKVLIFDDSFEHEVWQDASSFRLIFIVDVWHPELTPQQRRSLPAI
# Test: SPE-MS AspH inhibition assay (LOPAC screen at fixed 20 μM and IC50 dose-response), hydroxylation of cyclic peptide hFX-CP101–119
# Type: biochemical
# Settings: not given
Compound,Plate 2 (% conversion) [%],Plate 5 (% inhibition) [%]
CC[N+](C)(C)c1cccc(O)c1 [Edrophonium chloride],37.54,
Cc1c2ccncc2c(C)c2c1[nH]c1ccccc12 [Ellipticine],45.95,
CC[C@H]1CN2CCc3cc(OC)c(OC)cc3[C@@H]2C[C@@H]1C[C@H]1NCCc2cc(OC)c(OC)cc21 [Emetine dihydrochloride hydrate],37.46,
Cc1cc(O)c2c(c1)C(=O)c1cc(O)cc(O)c1C2=O [Emodin],37.82,
C[C@]12CC[C@@H]3c4ccc(O)cc4CC[C@H]3[C@@H]1CCC2=O [Estrone],37.75,
C=C1C[C@@H]2[C@H](CC[C@]3(C)C(=O)CC[C@@H]23)[C@@]2(C)C=CC(=O)C=C12 [Exemestane],,2.56
CC(Cc1ccc(O)cc1)NCC(O)c1cc(O)cc(O)c1 (centres unmarked) [Fenoterol hydrobromide],38.93,
OCCN1CCN(CCCN2c3ccccc3Sc3ccc(C(F)(F)F)cc32)CC1 [Fluphenazine dihydrochloride],63.32,
CCCCc1ccc(C(=O)O)nc1 [Fusaric acid],28.15,

# Same assay, conditions: 50 nM His6-AspH315–758, 1.0 μM hFX-CP101–119, 3 μM 2OG, 2 μM Fe(II), 50 mM HEPES pH 7.5, 20 °C; mean ± SD, n = 2 (2,4-PDCA n = 10); read-out: IC50
row,Compound,IC50 [nM]
1,"O=c1c2ccccc2[se]n1-c1ccccc1 [Ebselen, ebselen, reference compound]",120 ± 10

# Same assay, conditions: AspH activity; fixed compound concentration 20 μM; initial LOPAC screen; 0.5%v/v DMSO; read-out: Inhibition at 20 µM [%]
row,Compound,inhibition at 20 µM [%]
1,"Oc1ccc(C2CNCCc3c2cc(O)c(O)c3Cl)cc1 (centres unmarked) [Fenoldopam bromide, reference compound]",98.3

# Same assay, conditions: LOPAC Plate 4, compound at 20 uM
row,Compound,% inhibition [%]
1,CS(=O)(=O)O.O.O=C(OC1C[C@@H]2CC3C[C@H](C1)N2CC3=O)c1c[nH]c2ccccc12 (some centres unmarked) [Dolasetron mesylate hydrate],-4.53
2,Clc1ccc(N2CCN(Cc3cc4ccccn4n3)CC2)cc1 [FAUC 213],-8.79

# Same assay, conditions: LOPAC Plate 4, compound at 20 uM, substrate conversion
row,Compound,% conversion [%]
1,CS(=O)(=O)O.O.O=C(OC1C[C@@H]2CC3C[C@H](C1)N2CC3=O)c1c[nH]c2ccccc12 (some centres unmarked) [Dolasetron mesylate hydrate],38.02
2,CCOC(=O)C1=C(O)C(=O)N(Cc2ccccc2)C1 [EBPC],36.52
3,C[C@H](N[C@@H](CCc1ccccc1)C(=O)O)C(=O)N1CCC[C@H]1C(=O)O.O.O [Enalaprilat dihydrate],37.37
4,Clc1ccc(N2CCN(Cc3cc4ccccn4n3)CC2)cc1 [FAUC 213],39.47

# Same assay, conditions: LOPAC compound at 20uM, plate 2; conversion of substrate peptide
row,Compound,Plate 2 (% conversion) [%]
1,CC(CCc1ccc(O)cc1)NCCc1ccc(O)c(O)c1 (centres unmarked) [Dobutamine hydrochloride],8.47
2,Cl.N#Cc1ccc(N2CCN(C(=O)COc3ccc4[nH]cc(CCN)c4c3)CC2)cc1 [Donitriptan monohydrochloride],23.20
3,COc1cc2nc(N3CCN(C(=O)C4COc5ccccc5O4)CC3)nc(N)c2cc1OC (centres unmarked) [Doxazosin mesylate],41.90
4,O=C(O)CN(CCOCCOCCN(CC(=O)O)CC(=O)O)CC(=O)O [EGTA],38.29
5,CCC1(C2=NCCN2)Cc2ccccc2O1 (centres unmarked) [Efaroxan hydrochloride],34.90
6,OC(CN1CCC(Cc2ccc(F)cc2)CC1)c1ccc(Cl)cc1 (centres unmarked) [Eliprodil],39.73
7,CC(C)C[C@H](NC(=O)[C@H](O)[C@H](N)Cc1ccccc1)C(=O)O [Epibestatin hydrochloride],35.33
8,"Oc1ccc(C2CNCCc3c2cc(O)c(O)c3Cl)cc1 (centres unmarked) [Fenoldopam bromide, reference compound]",3.05

# Same assay, conditions: LOPAC compound at 20uM, plate 2; normalised to DMSO and 2,4-PDCA controls
row,Compound,Plate 2 (% inhibition) [%]
1,Cl.N#Cc1ccc(N2CCN(C(=O)COc3ccc4[nH]cc(CCN)c4c3)CC2)cc1 [Donitriptan monohydrochloride],38.09
2,O=C(O)CN(CCOCCOCCN(CC(=O)O)CC(=O)O)CC(=O)O [EGTA],-6.96

# Same assay, conditions: LOPAC compound at 20uM, plate 2; normalised to DMSO and 2,4-PDCA controls; read-out: Plate 2 (% inhibition)
row,Compound,inhibition at 20 µM [%]
1,CC(CCc1ccc(O)cc1)NCCc1ccc(O)c(O)c1 (centres unmarked) [Dobutamine hydrochloride],82.1
2,COc1cc2nc(N3CCN(C(=O)C4COc5ccccc5O4)CC3)nc(N)c2cc1OC (centres unmarked) [Doxazosin mesylate],-17.8
3,CCC1(C2=NCCN2)Cc2ccccc2O1 (centres unmarked) [Efaroxan hydrochloride],3.14
4,OC(CN1CCC(Cc2ccc(F)cc2)CC1)c1ccc(Cl)cc1 (centres unmarked) [Eliprodil],-11.3
5,Cc1c2ccncc2c(C)c2c1[nH]c1ccccc12 [Ellipticine],-29.9
6,Cc1cc(O)c2c(c1)C(=O)c1cc(O)cc(O)c1C2=O [Emodin],-5.58
7,CC(C)C[C@H](NC(=O)[C@H](O)[C@H](N)Cc1ccccc1)C(=O)O [Epibestatin hydrochloride],1.86
8,C[C@]12CC[C@@H]3c4ccc(O)cc4CC[C@H]3[C@@H]1CCC2=O [Estrone],-5.35
9,"Oc1ccc(C2CNCCc3c2cc(O)c(O)c3Cl)cc1 (centres unmarked) [Fenoldopam bromide, reference compound]",98.3
10,OCCN1CCN(CCCN2c3ccccc3Sc3ccc(C(F)(F)F)cc32)CC1 [Fluphenazine dihydrochloride],-81.7

# Same assay, conditions: plate 5 (Pfitzer), test compounds at fixed 20 μM
row,Compound,Plate 5 (% inhibition) [%]
1,CCOC(=O)C1=C(O)C(=O)N(Cc2ccccc2)C1 [EBPC],19.44

# Same assay, conditions: plate 5 (Pfitzer), test compounds at fixed 20 μM; mean conversion DMSO 32.88
row,Compound,Plate 5 (% conversion) [%]
1,CCOC(=O)C1=C(O)C(=O)N(Cc2ccccc2)C1 [EBPC],29.70
2,C=C1C[C@@H]2[C@H](CC[C@]3(C)C(=O)CC[C@@H]23)[C@@]2(C)C=CC(=O)C=C12 [Exemestane],35.45

# Same assay, conditions: read-out: Plate 2 (% inhibition)
row,Compound,inhibition at 20 µM [%]
1,CC[N+](C)(C)c1cccc(O)c1 [Edrophonium chloride],-4.75
2,CC[C@H]1CN2CCc3cc(OC)c(OC)cc3[C@@H]2C[C@@H]1C[C@H]1NCCc2cc(OC)c(OC)cc21 [Emetine dihydrochloride hydrate],-4.49
3,CC(Cc1ccc(O)cc1)NCC(O)c1cc(O)cc(O)c1 (centres unmarked) [Fenoterol hydrobromide],-8.89
4,CCCCc1ccc(C(=O)O)nc1 [Fusaric acid],23.3
